This experiment has as its target T1, human normal β-galactosidase (GP8) (Homo sapiens, UniProt P16278).
T1 sequence (P16278 29-677): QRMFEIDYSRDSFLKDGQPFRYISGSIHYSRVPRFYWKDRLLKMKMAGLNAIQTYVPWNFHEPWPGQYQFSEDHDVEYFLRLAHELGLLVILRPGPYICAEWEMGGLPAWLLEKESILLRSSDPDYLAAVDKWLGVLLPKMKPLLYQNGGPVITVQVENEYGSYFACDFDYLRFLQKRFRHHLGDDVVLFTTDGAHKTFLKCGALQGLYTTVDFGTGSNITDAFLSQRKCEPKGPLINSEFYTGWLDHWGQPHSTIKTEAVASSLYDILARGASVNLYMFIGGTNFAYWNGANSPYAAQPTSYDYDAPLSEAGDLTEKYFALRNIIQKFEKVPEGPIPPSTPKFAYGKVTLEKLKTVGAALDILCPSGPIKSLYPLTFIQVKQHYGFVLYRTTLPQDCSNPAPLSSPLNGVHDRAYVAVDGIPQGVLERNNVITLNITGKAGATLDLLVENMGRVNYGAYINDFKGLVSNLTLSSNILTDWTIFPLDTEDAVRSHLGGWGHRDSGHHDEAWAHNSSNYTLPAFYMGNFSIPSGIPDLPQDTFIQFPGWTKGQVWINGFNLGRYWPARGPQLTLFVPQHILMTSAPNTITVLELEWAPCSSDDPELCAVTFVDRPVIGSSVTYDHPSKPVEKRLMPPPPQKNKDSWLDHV
The experiment in a line: Galactosidase inhibitory activity, enzyme from culture supernatant, 4-methylumbelliferyl-β-D-galactopyranoside substrate. More on the design: made in house; host or cells: SV40-immortalized β-galactosidase knockout mouse skin fibroblasts; Enzyme source was the supernatant after 24 h in NH4Cl medium, dialyzed and concentrated. Conditions: 30 minutes. Type of experiment: biochemical. On the procedure: Knockout mouse skin fibroblast introduced with a human normal β-galactosidase (GP8) cDNA (Biochem. Biophys. Res. Commun., 157(1), 238-244, 1988) and immortalized with an SV40 viral gene were cultured at 37° C. in an atmosphere of 5% CO2, using Dulbecco's modified Eagle's medium (to be referred to as “DMEM” hereinafter: manufactured by Gibco) containing 10% fetal calf serum (to be referred to as “FCS” hereinafter), and when the cells became 80% confluent, the medium was exchanged with FCS-free DMEM containing 10 mM of NH4Cl. After culturing for 24 hours, the supernatant was recovered and dialyzed against 10 mM phosphate buffer (pH=6.5) for 4 hours. Thereafter, the mixture was concentrated using VIVAPORE-20 (manufactured by Vivapore) and used as the enzyme source. Using 4-methylumbelliferyl-β-D-galactopyranoside as the fluorescent substrate, the enzyme activity during 30 minutes was measured in the presence or absence of the substance to be tested (Table 1). Final concentration of the substance 18 of the present invention was adjusted to 0.05, 0.125, 0.25, 0.5, 1, 2.5 or 5 μM.

Consider `CCCCCCCCN[C@@H]1C=C(CO)[C@H](O)C(O)[C@@H]1O` (stereo partly drawn) [Substance 18, N-octyl-5a-carba-α-L-arabino-hexo-5(5a)-enopyranosylamine], for which the activity at 0.05 µM (0.050 umol/L substance) was 77%. Under “0.125 umol/L substance”, this compound showed an activity at 0.125 µM of 59.5%. The compound further yielded an activity at 0.25 µM (0.250 umol/L substance) of 43.4%. This compound also gave an activity at 0.5 µM (0.500 umol/L substance) of 35.7%. The compound also came in with an activity at 1 µM (1.000 umol/L substance) of 36%. Under “2.500 umol/L substance”, this compound registered an activity at 2.5 µM of 18.7%. Under “5.000 umol/L substance”, the activity at 5 µM was determined as 14.4%.

The values above are taken from US8211945B2, “Carba-sugar amine derivative and glycolipid metabolic disorder treating agent containing the same as active ingredient” (Seikagaku Corporation, priority 2001, dated 2012).
